Laboratory results published in patent US20140120060A1, “TREATMENT OF RHEUMATOID ARTHRITIS AND ASTHMA USING PI3 KINASE INHIBITORS” (INFINITY PHARMACEUTICALS, INC., priority 2012, published 2014).

What follows are molecules tested on B cell (assay: B cell proliferation).
Assay type: cell-based
Molecule `Cc1cccc2cc([C@H](C)Nc3ncnc4[nH]cc(F)c34)n(-c3ccccc3)c(=O)c12` [Compound 254] has an EC50 of under 100 nM.
For `Cc1cccc2cc(Cn3nc(-c4cn[nH]c4)c4c(N)ncnc43)n(-c3ccccc3F)c(=O)c12` [Compound 161], the EC50 was under 1000 nM.
In the case of `Cc1cccc2cc(Cn3cnc4c(N)ncnc43)n(-c3ccccc3F)c(=O)c12` [Compound 1], the EC50 is reported as under 10000 nM.
For `Cc1cccc2cc([C@H](C)Nc3ncnc4[nH]cnc34)n(-c3ccccc3)c(=O)c12` [Compound 196], the EC50 was under 100 nM.
In the case of `Cc1cccc2cc([C@H](C)Nc3ncnc4[nH]cc(F)c34)n(C3CC3)c(=O)c12` [Compound 278], the EC50 is reported as under 100 nM.
Molecule `Cc1ccccc1-n1c(Cn2nc(-c3ccc4cc[nH]c4c3)c3c(N)ncnc32)cc2cccc(C)c2c1=O` [Compound 50] has an EC50 of under 1000 nM.
For `Cc1ccccc1-n1c(Cn2nc(-c3ccc4nc(N)ccc4c3)c3c(N)ncnc32)cc2cccc(C)c2c1=O` [Compound 149], the EC50 was under 100 nM.
Molecule `CC(C)n1c(Cn2nc(-c3cc(O)cc(F)c3)c3c(N)ncnc32)cc2ccccc2c1=O` [Compound 136] has an EC50 of under 100 nM.
For `Cc1cccc2cc(Cn3nc(-c4cccc(O)c4)c4c(N)ncnc43)n(C3CCC3)c(=O)c12` [Compound 114], the EC50 was under 1000 nM.
For `Cc1cccc2cc(C(C)Nc3ncnc4[nH]cnc34)n(C3CC3)c(=O)c12` (stereo not drawn) [Compound 204], the EC50 was under 100 nM.
Work on `Cc1ccccc1-n1c(Cn2nc(-c3nn[nH]n3)c3c(N)ncnc32)cc2cccc(C)c2c1=O` [Compound 207] yielded an EC50 of under 10000 nM.
Work on `COc1ccc(-c2nn(Cc3cc4cccc(C)c4c(=O)n3-c3ccccc3C)c3ncnc(N)c23)cc1OC` [Compound 44] yielded an EC50 of under 100 nM.
Work on `Cc1ccccc1-n1c(Cn2nc(-c3ccc(F)c(O)c3)c3c(N)ncnc32)cc2cccc(C)c2c1=O` [Compound 12] yielded an EC50 of under 100 nM.
In the case of `Cc1ccccc1-n1c(Cn2nc(-c3cccc(Cl)c3)c3c(N)ncnc32)cc2cccc(C)c2c1=O` [Compound 39], the EC50 is reported as under 10000 nM.
`Cc1ccccc1-n1c(Cn2nc(-c3ccc(O)c(Cl)c3)c3c(N)ncnc32)cc2cccc(C)c2c1=O` [Compound 25] showed an EC50 of under 1000 nM.
Work on `Cc1cccc2cc([C@H](C)Nc3ncnc4[nH]cnc34)n(-c3cccc(F)c3)c(=O)c12` [Compound 290] yielded an EC50 of under 100 nM.
Work on `CCc1nn(Cc2cc3cccc(C)c3c(=O)n2-c2ccccc2C)c2ncnc(N)c12` [Compound 294] yielded an EC50 of under 1000 nM.
`Cc1cccc2cc(Cn3nc(I)c4c(N)ncnc43)n(-c3ccccc3C(C)C)c(=O)c12` [Compound 75] showed an EC50 of under 100 nM.
`C=Cc1nn(Cc2cc3cccc(C)c3c(=O)n2-c2ccccc2)c2ncnc(N)c12` [Compound 301] gave an EC50 of under 100 nM.
With `Cc1cccc2cc(Cn3nc(-c4cc(O)cc(F)c4)c4c(N)ncnc43)n(C3CCC3)c(=O)c12` [Compound 115] the EC50 was under 100 nM.
Molecule `Cc1cccc2cc([C@H](C)Nc3ncnc4[nH]nc(C(N)=O)c34)n(-c3ccccc3)c(=O)c12` [Compound 256] has an EC50 of under 100 nM.
For `Cc1cccc2cc(Cn3nc(-c4cc(O)cc(F)c4)c4c(N)ncnc43)n(-c3ccccc3F)c(=O)c12` [Compound 3], the EC50 was under 100 nM.
In the case of `CCc1ccccc1-n1c(Cn2nc(-c3cccc(O)c3)c3c(N)ncnc32)cc2cccc(C)c2c1=O` [Compound 88], the EC50 is reported as under 100 nM.
In the case of `CCC(Nc1ncnc2[nH]cnc12)c1cc2cccc(C)c2c(=O)n1C1CCN(C)CC1` (stereo not drawn) [Compound 228], the EC50 is reported as under 100 nM.
`Cc1cccc2cc(Cn3nc(-c4cc(O)cc(F)c4)c4c(N)ncnc43)n(C3CCCCC3)c(=O)c12` [Compound 110] showed an EC50 of under 1000 nM.
`Cc1ccccc1-n1c(Cn2nc(-c3cnn(CCO)c3)c3c(N)ncnc32)cc2cccc(C)c2c1=O` [Compound 163] showed an EC50 of under 1000 nM.
For `Nc1ncnc2c1c(-c1cccc(O)c1)nn2Cc1cc2cccc(Cl)c2c(=O)n1C1CC1` [Compound 141], the EC50 was under 100 nM.
For `Cc1cccc2cc(Cn3nc(-c4cc(O)cc(F)c4)c4c(N)ncnc43)n(C3CCOCC3)c(=O)c12` [Compound 128], the EC50 was under 100 nM.
With `CNC(=O)Nc1nc2ccc(-c3nn(Cc4cc5cccc(C)c5c(=O)n4-c4ccccc4C)c4ncnc(N)c34)cc2s1` [Compound 148] the EC50 was under 100 nM.
Work on `Cc1cccc2cc(C(C)Nc3ncnc4[nH]cnc34)n(-c3c(F)cccc3F)c(=O)c12` (stereo not drawn) [Compound 216] yielded an EC50 of under 100 nM.
`Cc1ccccc1-n1c(Cn2nc(-c3cc(O)cc(F)c3)c3c(N)ncnc32)cc2cccc(F)c2c1=O` [Compound 55] gave an EC50 of under 100 nM.
`Cc1ccccc1-n1c(Cn2nc(-c3ccc4ncnc(N)c4c3)c3c(N)ncnc32)cc2cccc(C)c2c1=O` [Compound 152] was tested, and the EC50 was under 1000 nM.
Molecule `Cc1cccc2cc(Cn3nc(I)c4c(N)ncnc43)n(C3CCC3)c(=O)c12` [Compound 105] has an EC50 of under 1000 nM.
`Cc1ccccc1-n1c(Cn2nc(C#CCO)c3c(N)ncnc32)cc2cccc(C)c2c1=O` [Compound 11] showed an EC50 of under 1000 nM.
Molecule `Cc1cccnc1-n1c(Cn2nc(-c3cccc(O)c3)c3c(N)ncnc32)cc2cccc(C)c2c1=O` [Compound 73] has an EC50 of under 100 nM.
`Cc1ccccc1-n1c(Cn2nc(/C=C3/SC(=O)NC3=O)c3c(N)ncnc32)cc2cccc(C)c2c1=O` [Compound 173] gave an EC50 of under 100 nM.
With `Cc1cccc2cc(C(C)Nc3ncnc4[nH]cnc34)n(C3CCC3)c(=O)c12` (stereo not drawn) [Compound 215] the EC50 was under 100 nM.
`Cc1ccccc1-n1c(Cn2nc(C(F)F)c3c(N)ncnc32)cc2cccc(C)c2c1=O` [Compound 306] showed an EC50 of under 100 nM.
`Cc1cccc2cc(Cn3nc(-c4cc(O)cc(F)c4)c4c(N)ncnc43)n(C(C)C)c(=O)c12` [Compound 66] was tested, and the EC50 was under 100 nM.
`Cc1ccccc1-n1c(Cn2nc(C#CC3CC3)c3c(N)ncnc32)cc2cccc(C)c2c1=O` [Compound 14] showed an EC50 of under 1000 nM.
In the case of `COc1ccccc1-n1c(Cn2nc(I)c3c(N)ncnc32)cc2cccc(C)c2c1=O` [Compound 70], the EC50 is reported as under 1000 nM.
Molecule `Cc1cccc2cc(Cn3nc(-c4ccc(Cl)c(O)c4)c4c(N)ncnc43)n(C3CCCC3)c(=O)c12` [Compound 71] has an EC50 of under 10000 nM.
`Cc1cccc2cc(Cn3nc(-c4ccc(O)c(F)c4)c4c(N)ncnc43)n(-c3ccccc3F)c(=O)c12` [Compound 29] gave an EC50 of under 1000 nM.
`Cc1cccnc1-n1c(Cn2nc(-c3ccc(Cl)c(O)c3)c3c(N)ncnc32)cc2cccc(C)c2c1=O` [Compound 72] showed an EC50 of under 100 nM.
Work on `Cc1cccc2cc([C@H](C)Nc3nc(Cl)ncc3Cl)n(-c3ccccc3)c(=O)c12` [Compound 248] yielded an EC50 of under 100 nM.
With `Cc1ccccc1-n1c(Cn2nc(C#N)c3c(N)ncnc32)cc2cccc(C)c2c1=O` [Compound 170] the EC50 was under 100 nM.
For `Cc1cccc2cc(Cn3nc(-c4ccc(O)c(Cl)c4)c4c(N)ncnc43)n(-c3ccccc3F)c(=O)c12` [Compound 26], the EC50 was under 10000 nM.
Molecule `Cc1ccccc1-n1c(Cn2nc(/C=C/C(N)=O)c3c(N)ncnc32)cc2cccc(C)c2c1=O` [Compound 174] has an EC50 of under 100 nM.
Molecule `CC(=O)Nc1nc2ccc(-c3nn(Cc4cc5ccccc5c(=O)n4-c4ccccc4C)c4ncnc(N)c34)cc2s1` [Compound 168] has an EC50 of under 100 nM.
In the case of `Cc1cccc2cc([C@@H](C)Nc3ncnc4[nH]cnc34)n(-c3ccccc3)c(=O)c12` [Compound 195], the EC50 is reported as under 1000 nM.
In the case of `Cc1cccc2cc(Cn3nc(-c4cn[nH]c4)c4c(N)ncnc43)n(-c3ccccc3C(F)(F)F)c(=O)c12` [Compound 214], the EC50 is reported as under 100 nM.
Molecule `CCc1ccccc1-n1c(Cn2nc(C#C[C@@H](C)O)c3c(N)ncnc32)cc2cccc(C)c2c1=O` [Compound 99] has an EC50 of under 100 nM.
For `Cc1cccc2cc(C(C)Nc3ncnc4[nH]cnc34)n(-c3ccccc3F)c(=O)c12` (stereo not drawn) [Compound 167], the EC50 was under 100 nM.
`COc1cc(-c2nn(Cc3cc4cccc(C)c4c(=O)n3-c3ccccc3F)c3ncnc(N)c23)ccc1Cl` [Compound 22] gave an EC50 of under 10000 nM.
`Cc1cccc2cc(C(C)Nc3ncnc4[nH]cnc34)n(C3CCOCC3)c(=O)c12` (stereo not drawn) [Compound 234] gave an EC50 of under 100 nM.
`Cc1cccc2cc([C@H](C)Nc3nc(F)nc4[nH]cnc34)n(-c3ccccc3)c(=O)c12` [Compound 245] was tested, and the EC50 was under 100 nM.
In the case of `Cc1cccc2cc(Cn3nc(-c4cccc(Cl)c4)c4c(N)ncnc43)n(-c3ccccc3F)c(=O)c12` [Compound 38], the EC50 is reported as over 10000 nM.
`Cc1ccccc1-n1c(Cn2cnc3c(N)ncnc32)cc2cccc(C)c2c1=O` [Compound 5] was tested, and the EC50 was under 10000 nM.
`CC(=O)Nc1nc2ccc(-c3nn(Cc4cc5cccc(F)c5c(=O)n4C(C)C)c4ncnc(N)c34)cc2s1` [Compound 158] gave an EC50 of under 100 nM.
`Cc1ccccc1-n1c(Cn2nc(-c3cccc(F)c3)c3c(N)ncnc32)cc2cccc(C)c2c1=O` [Compound 41] showed an EC50 of under 1000 nM.
In the case of `Cc1cccc2cc(Cn3nc(I)c4c(N)ncnc43)n(-c3ccccc3F)c(=O)c12` [Compound 2], the EC50 is reported as under 10000 nM.
`Cc1ccccc1-n1c(Cn2nc(I)c3c(N)ncnc32)cc2ccccc2c1=O` [Compound 31] showed an EC50 of under 1000 nM.
Molecule `Cc1cccc2cc(Cn3nc(-c4cn[nH]c4)c4c(N)ncnc43)n(-c3ccccc3Cl)c(=O)c12` [Compound 188] has an EC50 of under 100 nM.
`Cc1cccc2cc(Cn3nc(-c4ccc5nc(N)sc5c4)c4c(N)ncnc43)n(-c3ccccc3)c(=O)c12` [Compound 252] gave an EC50 of under 100 nM.
Work on `Cc1cccnc1-n1c(Cn2nc(I)c3c(N)ncnc32)cc2cccc(C)c2c1=O` [Compound 15] yielded an EC50 of under 1000 nM.
Molecule `Cc1ccccc1-n1c(Cn2nc(Cl)c3c(N)ncnc32)cc2cccc(C)c2c1=O` [Compound 20] has an EC50 of under 1000 nM.
For `CC(Nc1ncnc2[nH]cnc12)c1cc2cccc(Cl)c2c(=O)n1-c1ccccc1` (stereo not drawn) [Compound 237], the EC50 was under 100 nM.
`Cc1cccc2cc(Cn3nc(I)c4c(N)ncnc43)n(-c3ccccc3O)c(=O)c12` [Compound 79] gave an EC50 of under 1000 nM.
For `CC(=O)Nc1nc2ccc(-c3nn(Cc4cc5cccc(C)c5c(=O)n4-c4cccc(F)c4)c4ncnc(N)c34)cc2s1` [Compound 178], the EC50 was under 100 nM.
For `Cc1cccc2cc(Cn3nc(C#CCO)c4c(N)ncnc43)n(-c3ccccc3F)c(=O)c12` [Compound 8], the EC50 was under 1000 nM.
`Cc1cccc2cc([C@@H](C)Nc3ncnc4[nH]cnc34)n(C3CCC3)c(=O)c12` [Compound 197] showed an EC50 of under 10000 nM.
Work on `Cc1cccc2cc([C@H](C)Nc3ncnc4[nH]ccc34)n(-c3ccccc3)c(=O)c12` [Compound 247] yielded an EC50 of under 100 nM.
In the case of `CCc1nn(Cc2cc3cccc(C)c3c(=O)n2-c2ccccc2)c2ncnc(N)c12` [Compound 303], the EC50 is reported as under 100 nM.
`Cc1cccc2cc([C@H](C)Nc3ncnc4[nH]cnc34)n(C3CC3)c(=O)c12` [Compound 200] gave an EC50 of under 100 nM.
With `Cc1cccc2cc(Cn3nc(-c4ccc5oc(N)nc5c4)c4c(N)ncnc43)n(C3CC3)c(=O)c12` [Compound 201] the EC50 was under 100 nM.
